The values below are quoted from earlier work in patent EP4368198A1, “COMPOSITION FOR DELIVERING A PROTEIN OR A POLYPEPTIDE TO A EUKARYOTIC CELL” (Klinikum der Universität München, priority 2022, dated 2024).

The conditions of this data set: normalized, most hydrophobic residue 100, glycine 0, Monera et al. 1995.

`O=C(O)[C@@H]1CCCN1` [Proline (pro), Proline]: the “hydrophobicity index At pH 7” value is reported as -46 (used pH 2).
